Where two headings read alike, the source gives them in different places.
How the values were obtained:
A/H5N1/Gull_PA = assay: microbe, parasite or virus in culture; type: cell-based, influenza A
A/H5N1/Duck_PA = assay: microbe, parasite or virus in culture; type: cell-based, influenza A
A/H5N1/Duck_MN = assay: microbe, parasite or virus in culture; type: cell-based, influenza A
influenza A/WSN/33 = assay: Antiviral assay in MDCK cells, viral neuraminidase (MUNANA) readout, A/H1N1/WSN; type: cell-based; details: read-out: A/H1N1/WSN Activity
[1] = test system: influenza A/Brisbane/10/2007; assay: Antiviral assay in MDCK cells, viral neuraminidase (MUNANA) readout, A/H3N2/Brisbane; type: cell-based; details: read-out: A/H3N2/Brisbane Activity
[2] = test system: Influenza A/Solomon Islands/3/06; assay: Antiviral assay in MDCK cells, viral neuraminidase (MUNANA) readout, A/H1N1/Solomon Islands; type: cell-based; details: read-out: A/H1N1/Solomon Islands Activity
[3] = MDCK cells, MOI 0.001, 48 hrs post infection, viral NA activity
[4] = Influenza A virus, H5N1, read-out: A/H5N1/Gull_PA
[5] = Influenza A virus, H5N1, read-out: A/H5N1/Duck_PA
[6] = Influenza A virus, H5N1, read-out: A/H5N1/Duck_MN
[7] = Influenza A virus, H3N2, MDCK, 48 h
[8] = Influenza A virus, H1N1, MDCK, 48 h

SMILES | EC50 (influenza A/WSN/33; [3]) | EC50 [1, 3] | EC50 [2, 3] | further results
COc1ccccc1-c1noc(C)c1C(=O)N1CCN(c2cc(NC(=O)c3ccco3)c([N+](=O)[O-])cc2Cl)CC1 [Example 8] | – | – | – | EC50 (A/H5N1/Gull_PA; read-out: A/H5N1/Gull_PA): < 100 nM; EC50 (A/H5N1/Duck_PA; read-out: A/H5N1/Duck_PA): < 100 nM; EC50 (A/H5N1/Duck_MN; read-out: A/H5N1/Duck_MN): < 1000 nM
Cc1c[nH]c(-c2ccccc2Cl)c1C(=O)N1CCN(c2cc(NC(=O)c3ccc(N(C)C)cc3)c([N+](=O)[O-])cc2Cl)CC1 [Example 72] | < 100 nM | < 1000 nM | < 100 nM | –
COc1ccccc1-c1ncn(C)c1C(=O)N1CCN(c2cc(NC(=O)c3ccc(N(C)C)cc3)c([N+](=O)[O-])cc2Cl)CC1 [Example 81] | < 100 nM | < 10000 nM | < 100 nM | –
Cc1onc(-c2cccc3ccccc23)c1C(=O)N1CCN(c2cc(NC(=O)c3nccs3)c([N+](=O)[O-])cc2Cl)CC1 [Example 78, N-(4-chloro-5-(4-(5-methyl-3-(naphthalen-1-yl)isoxazole-4-carbonyl)piperazin-1-yl)-2-nitrophenyl)thiazole-2-carboxamide] | – | – | – | EC50 (A/H5N1/Gull_PA; [4]): < 100 nM; EC50 (A/H5N1/Duck_PA; [5]): < 1000 nM; EC50 (A/H5N1/Duck_MN; [6]): < 1000 nM
COc1ccccc1-c1nnn(C)c1C(=O)N1CCN(c2cc(NC(=O)c3ccc(N4CCCS4(=O)=O)cc3)c([N+](=O)[O-])cc2Cl)CC1 [Example 92] | < 100 nM | < 1000 nM | < 100 nM | –
COc1ccccc1-c1noc(C)c1C(=O)N1CCN(c2cc(NC(=O)c3ccc(OC(F)F)cc3)c([N+](=O)[O-])cc2Cl)CC1 [Example 13] | – | – | – | EC50 (A/H5N1/Gull_PA; read-out: A/H5N1/Gull_PA): < 100 nM; EC50 (A/H5N1/Duck_PA; read-out: A/H5N1/Duck_PA): < 1000 nM; EC50 (A/H5N1/Duck_MN; read-out: A/H5N1/Duck_MN): < 1000 nM
COc1ccccc1-c1nnn(C)c1C(=O)N1CCN(c2cc(NC(=O)c3ccc(N4CCCS4(=O)=O)cc3)c(Br)cc2Cl)CC1 [Example 120, N-(4-chloro-5-(4-(4-(2-methoxyphenyl)-1-methyl-1H-1,2,3-triazole-5-carbonyl)piperazin-1-yl)-2-bromophenyl)-4-(1,1-dioxidoisothiazolidin-2-yl)benzamide] | – | – | – | EC50 (influenza A/WSN/33; Influenza A virus, MDCK, 48 h): < 1000 nM; EC50 [1, 7]: < 10000 nM; EC50 [2, 8]: < 1000 nM
COc1ccccc1-c1nnn(C)c1C(=O)N1CCN(c2cc(NC(=O)c3ccc(N4CCCC4=O)cc3)c([N+](=O)[O-])cc2C#N)CC1 [Example 122, N-(4-cyano-5-(4-(4-(2-methoxyphenyl)-1-methyl-1H-1,2,3-triazole-5-carbonyl)piperazin-1-yl)-2-nitrophenyl)-4-(2-oxopyrrolidin-1-yl)benzamide] | – | – | – | EC50 (influenza A/WSN/33; Influenza A virus, MDCK, 48 h): < 1000 nM; EC50 [1, 7]: < 1000 nM; EC50 [2, 8]: < 1000 nM
COc1ccccc1-c1noc(C)c1C(=O)N1CCN(c2nc(NC(=O)c3ccc(N(C)C)cc3)c(Cl)cc2Cl)CC1 [Example 52] | < 1000 nM | < 10000 nM | < 1000 nM | –
COc1ccccc1-c1noc(C)c1C(=O)N1CCN(c2cc(NC(=O)c3ccc(N(C)S(C)(=O)=O)cc3)c([N+](=O)[O-])cc2Cl)CC1 [Example 35] | < 100 nM | < 1000 nM | < 100 nM | –
COc1ccc(C(=O)Nc2nc(N3CCN(C(=O)c4c(-c5ccccc5OC)noc4C)CC3)c(Cl)cc2[N+](=O)[O-])cc1 [Example 43] | < 1000 nM | < 100 nM | < 1000 nM | –
COc1ccccc1-c1ncn(C)c1C(=O)N1CCN(c2cc(NC(=O)c3ccc(N(C)C)cc3)c([N+](=O)[O-])cc2C#N)CC1 [Example 124] | < 100 nM | < 100 nM | < 100 nM | –
COc1ccc(C(=O)Nc2cc(N3CCN(C(=O)c4c(-c5cccc6ccccc56)noc4C)CC3)c(Cl)cc2[N+](=O)[O-])cc1 [Example 77, N-(4-chloro-5-(4-(5-methyl-3-(naphthalen-1-yl)isoxazole-4-carbonyl)piperazin-1-yl)-2-nitrophenyl)-4-methoxybenzamide] | – | – | – | EC50 (A/H5N1/Gull_PA; [4]): < 100 nM; EC50 (A/H5N1/Duck_PA; [5]): < 1000 nM; EC50 (A/H5N1/Duck_MN; [6]): < 1000 nM
C=Cc1cc(Cl)c(N2CCN(C(=O)c3c(-c4ccccc4OC)noc3C)CC2)cc1NC(=O)c1ccc(N(C)C)cc1 [Example 125, N-(4-chloro-5-(4-(3-(2-methoxyphenyl)-5-methylisoxazole-4-carbonyl)piperazin-1-yl)-2-vinylphenyl)-4-(dimethylamino)benzamide] | – | – | – | EC50 (influenza A/WSN/33; Influenza A virus, MDCK, 48 h): < 1000 nM; EC50 [1, 7]: < 10000 nM; EC50 [2, 8]: < 1000 nM
COc1ccccc1-c1noc(CF)c1C(=O)N1CCN(c2cc(NC(=O)c3ccc(N(C)C)cc3)c(Cl)cc2Cl)CC1 [Example 69, N-(2,4-dichloro-5-(4-(5-(fluoromethyl)-3-(2-methoxyphenyl)isoxazole-4-carbonyl)piperazin-1-yl)phenyl)-4-(dimethylamino)benzamide] | – | – | – | EC50 (influenza A/WSN/33; Influenza A virus, MDCK, 48 h): < 1000 nM; EC50 [1, 7]: < 10000 nM; EC50 [2, 8]: < 1000 nM
COc1ccccc1-c1nnn(C)c1C(=O)N1CCN(c2cc(NC(=O)c3ccc(N4CCCC4=O)cc3)c([N+](=O)[O-])cc2Cl)CC1 [Example 84, N-(4-chloro-5-(4-(4-(2-methoxyphenyl)-1-methyl-1H-1,2,3-triazole-5-carbonyl)piperazin-1-yl)-2-nitrophenyl)-4-(2-oxopyrrolidin-1-yl)benzamide] | – | – | – | EC50 (influenza A/WSN/33; Influenza A virus, MDCK, 48 h): < 100 nM; EC50 [1, 7]: < 100 nM; EC50 [2, 8]: < 100 nM
COc1ccccc1-n1ncc(C)c1C(=O)N1CCN(c2cc(NC(=O)c3ccc(N(C)C)cc3)c([N+](=O)[O-])cc2Cl)CC1 [Example 73] | < 1000 nM | < 1000 nM | < 100 nM | –

SMILES | EC50 (influenza A/WSN/33; [3]) | EC50 [1, 3] | EC50 [2, 3] | further results
COc1ccccc1-c1noc(C)c1C(=O)N1CCN(c2cc(NC(=O)c3ccc(N(C)C)cc3)c(C#N)cc2Cl)CC1 [Example 65] | < 100 nM | < 10000 nM | < 1000 nM | –
COc1ccccc1-c1noc(C)c1C(=O)N1CCN(c2cc(NC(=O)C3CCC3)c([N+](=O)[O-])cc2Cl)CC1 [Example 9] | < 100 nM | < 10000 nM | < 1000 nM | –
COc1ccccc1-c1noc(C)c1C(=O)N1CCN(c2cc(NC(=O)c3ccc(N(C)C)cc3)c(Cl)cc2Cl)CC1 [Example 55] | < 100 nM | < 1000 nM | < 100 nM | –
COc1ccccc1-c1noc(C)c1C(=O)N1CCN(c2cc(NC(=O)c3ccc(N(C)C)cc3)c(C)cc2Br)CC1 [Example 54] | < 1000 nM | < 10000 nM | < 1000 nM | –
COc1ccccc1-c1noc(C)c1C(=O)N1CCN(c2cc(NC(=O)c3ccc(N(C)C)cc3)c([N+](=O)[O-])cc2C#N)CC1 [Example 68] | < 1000 nM | < 100 nM | < 100 nM | –
COc1ccc(C(=O)Nc2cc(N3CCN(C(=O)c4c(-c5ccccc5OC)ncn4C)CC3)c(Cl)cc2[N+](=O)[O-])cc1 [Example 102] | < 100 nM | < 10000 nM | < 1000 nM | –
COc1ccccc1-c1noc(C)c1C(=O)N1CCN(c2cc(NC(=O)c3ccc(C)cc3)c([N+](=O)[O-])cc2Cl)CC1 [Example 24] | < 100 nM | < 10000 nM | < 100 nM | –
COc1ccc(C(=O)Nc2cc(N3CCN(C(=O)c4c(-c5ccccc5OC)noc4C)CC3)c(C#N)cc2Cl)cc1 [Example 66] | < 10000 nM | < 10000 nM | < 10000 nM | –
CCOc1ccc(C(=O)Nc2cc(N3CCN(C(=O)c4c(-c5ccccc5OC)noc4C)CC3)c(Cl)cc2[N+](=O)[O-])cc1 [Example 15] | – | – | – | EC50 (A/H5N1/Gull_PA; read-out: A/H5N1/Gull_PA): < 100 nM; EC50 (A/H5N1/Duck_PA; read-out: A/H5N1/Duck_PA): < 1000 nM; EC50 (A/H5N1/Duck_MN; read-out: A/H5N1/Duck_MN): < 1000 nM
COc1ccccc1-c1noc(C)c1C(=O)N1CCN(c2cc(NC(=O)c3ccc(-n4cncn4)cc3)c([N+](=O)[O-])cc2Cl)CC1 [Example 37] | < 100 nM | < 1000 nM | < 100 nM | –
COc1ccccc1-c1n[nH]c(C)c1C(=O)N1CCN(c2cc(NC(=O)c3ccc(N(C)C)cc3)c([N+](=O)[O-])cc2Cl)CC1 [Example 70, N-(4-chloro-5-(4-(3-(2-methoxyphenyl)-5-methyl-1H-pyrazole-4-carbonyl)piperazin-1-yl)-2-nitrophenyl)-4-(dimethylamino)benzamide] | – | – | – | EC50 (influenza A/WSN/33; Influenza A virus, MDCK, 48 h): < 100 nM; EC50 [1, 7]: < 10000 nM; EC50 [2, 8]: < 1000 nM
COc1ccccc1-c1noc(C)c1C(=O)N1CCN(c2cc(NC(=O)c3ccc(SC)cc3)c([N+](=O)[O-])cc2Cl)CC1 [Example 11] | – | – | – | EC50 (A/H5N1/Gull_PA; read-out: A/H5N1/Gull_PA): < 100 nM; EC50 (A/H5N1/Duck_PA; read-out: A/H5N1/Duck_PA): < 100 nM; EC50 (A/H5N1/Duck_MN; read-out: A/H5N1/Duck_MN): < 1000 nM
COc1ccccc1-c1noc(C)c1C(=O)N1CCN(c2cc(NC(=O)c3ccc(-c4nnc(C)o4)cc3)c([N+](=O)[O-])cc2Cl)CC1 [Example 38] | < 1000 nM | < 100 nM | < 1000 nM | –
COc1ccc(C(=O)Nc2cc(N3CCN(C(=O)c4c(-c5ccccc5OC)noc4C)CC3)c(Cl)cc2[N+](=O)[O-])cc1 [Example 1, N-(4-chloro-5-(4-(3-(2-methoxyphenyl)-5-methylisoxazole-4-carbonyl)piperazin-1-yl)-2-nitrophenyl)-4-methoxybenzamide] | – | – | – | EC50 (influenza A/WSN/33; Influenza A virus, MDCK, 48 h): < 100 nM; EC50 [1, 7]: < 1000 nM; EC50 [2, 8]: < 100 nM
COc1ccccc1-c1noc(C)c1C(=O)N1CCN(c2cc(NC(=O)c3ccc(N4CCCC4=O)cc3)c([N+](=O)[O-])cc2Cl)CC1 [Example 47, N-(4-chloro-5-(4-(3-(2-methoxyphenyl)-5-methylisoxazole-4-carbonyl)piperazin-1-yl)-2-nitrophenyl)-4-(2-oxopyrrolidin-1-yl)benzamide] | – | – | – | EC50 (influenza A/WSN/33; Influenza A virus, MDCK, 48 h): < 100 nM; EC50 [1, 7]: < 1000 nM; EC50 [2, 8]: < 100 nM
COc1ccccc1-c1noc(C)c1C(=O)N1CCN(c2cc(NC(=O)c3nccs3)c(Cl)cc2Cl)CC1 [Example 56] | < 1000 nM | < 10000 nM | < 10000 nM | –

From patent publication US8362004B2, “Piperazine analogs as broad-spectrum influenza antivirals” (priority 2010, dated 2013)
